Residue numbers refer to the chain shown, from its start. Where “and” joins values, the source holds several entries; their conditions need not be identical. Equal values may be shown once.
Legend:
Assay type in all cases: cell-based
hTA1 T271A = target: T1, hTA1 T271A (Homo sapiens, UniProt Q96RJ0, T271A); experiment: GloSensor cAMP accumulation assay, T271A mutant
T1 construct: expressed in transfected cells; host or cells: HEK293T
T1 sequence (Q96RJ0 1-339 T271A): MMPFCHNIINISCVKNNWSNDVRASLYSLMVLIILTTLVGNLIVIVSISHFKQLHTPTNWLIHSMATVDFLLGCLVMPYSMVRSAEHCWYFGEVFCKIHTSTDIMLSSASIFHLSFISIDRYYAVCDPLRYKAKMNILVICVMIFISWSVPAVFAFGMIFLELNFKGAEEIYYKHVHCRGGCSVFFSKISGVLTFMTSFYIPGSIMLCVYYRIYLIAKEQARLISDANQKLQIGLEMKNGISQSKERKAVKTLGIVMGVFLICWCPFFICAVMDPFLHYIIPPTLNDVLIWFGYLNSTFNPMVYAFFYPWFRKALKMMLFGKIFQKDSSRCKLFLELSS

hTA1 = target: T2, hTA1 (Homo sapiens, UniProt Q96RJ0); experiment: GloSensor cAMP accumulation assay, concentration response, wild-type hTA1 in transfected HEK293T cells; conditions: for Dose-response curves for asenapine vs endogenous trace amines: log[Compound], replicate values (N=2);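 on all read-outs here: luminescence read after 30 min compound exposure at room temperature in cells preloaded with D-Luciferin, reflecting Gs-driven cAMP rise, efficacy scaled to the maximal β-PEA response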
T2 construct: expressed in transfected cells; host or cells: HEK293T
T2 sequence (Q96RJ0 1-339): T1 sequence (Q96RJ0 1-339 T271A) with A271T

hTA1 C88S = target: T3, hTA1 C88S (Homo sapiens, UniProt Q96RJ0, C88S); experiment: GloSensor cAMP accumulation assay, C88S mutant; conditions: C88S
T3 construct: expressed in transfected cells; host or cells: HEK293T
T3 sequence (Q96RJ0 1-339 C88S): T1 sequence (Q96RJ0 1-339 T271A) with C88S, A271T

hTA1 C88/178S = target: T4, hTA1 C88/178S (Homo sapiens, UniProt Q96RJ0, C178S/C88S); experiment: GloSensor cAMP accumulation assay, C88S/C178S double mutant; conditions: for Normalized Luminescence Counts (N=2): log[Compound], single replicate values
T4 construct: expressed in transfected cells; host or cells: HEK293T
T4 sequence (Q96RJ0 1-339 C88S/C178S): T1 sequence (Q96RJ0 1-339 T271A) with C88S, C178S, A271T

[1] = C88S, C178S, each row is one independent experiment, 3 replicates

NCCc1ccccc1 [β-PEA, β-phenethylamine]
reduction in potency vs wild type (hTA1 T271A; T271A): about 10 fold | ΔpEC50 values (each mutant value - WT average), Mean (hTA1 T271A; T271A mutant minus WT average, Figure 5B): -1.015 and -0.8638 | pEC50 values, Mean (hTA1 T271A; T271A mutant, Figure 5B, each row one independent experiment (3 replicates)): 6.079 and 6.23 | Emax values, Mean (hTA1 T271A; T271A mutant, Figure 5B, β-PEA = 100, each row one independent experiment (3 replicates)): 100 | Span ± SEM (Emax normalized to β-PEA) (hTA1 T271A; T271A, n=2): 100 ± 2.03 | pEC50 ± SEM (hTA1 T271A; T271A, n=2): 6.15 ± 0.03 | EC50 (hTA1 T271A; T271A, n=2, read-out: EC50): 0.701 µM | Emax values, Avg (hTA1; WT hTA1, Figure 5B, β-PEA = 100, average of the independent experiments): 100 | Emax values, Mean (hTA1; WT hTA1, Figure 5B, β-PEA = 100, each row one independent experiment (3 replicates)): 100 | pEC50 values, Avg (hTA1; WT hTA1, average of the two experiments, Figure 2B source data): 7.094 | pEC50 values, Mean (hTA1; WT hTA1, each line an independent experiment, 3 replicates, Figure 2B source data): 7.155 and 7.032 | Emax values, Avg (hTA1; WT hTA1, β-PEA = 100, average of the two experiments): 100 | Emax values, Mean (hTA1; WT hTA1, β-PEA = 100, each line an independent experiment, 3 replicates): 100 | Emax values, Avg (hTA1; WT, Avg of the two experiments, β-PEA = 100): 100 | Emax values, Avg (hTA1; WT, average of the experiments, β-PEA = 100): 100 | Emax values, Avg (hTA1; WT, average of the two experiments): 100 | Emax values, Mean (hTA1; WT, mean of each independent experiment (3 replicates), β-PEA = 100): 100 | Emax values, Mean (hTA1; WT, mean of one experiment (3 replicates), β-PEA = 100): 100 | Emax values, Mean (hTA1; WT, single experiments (3 replicates each), β-PEA = 100): 100 | Dose-response curves for asenapine vs endogenous trace amines (hTA1; M = -5): 114.55 and 104.58 and 118.623 and 102.53 and 95.7683 and 107.085 | Dose-response curves for asenapine vs endogenous trace amines (hTA1; M = -5.522): 96.3904 and 87.8446 and 97.5922 and 98.0692 and 90.9789 and 92.0588 | Dose-response curves for asenapine vs endogenous trace amines (hTA1; M = -6): 88.2006 and 75.1148 and 94.0536 and 103.14 and 88.8658 and 89.805 | Dose-response curves for asenapine vs endogenous trace amines (hTA1; M = -6.522): 73.7573 and 64.299 and 91.1383 and 74.7791 and 68.7219 and 73.7461 | Dose-response curves for asenapine vs endogenous trace amines (hTA1; M = -7): 70.4636 and 45.5827 and 61.4726 and 66.5619 and 44.258 and 53.6961 | Dose-response curves for asenapine vs endogenous trace amines (hTA1; M = -7.522): 36.1467 and 21.3027 and 35.9464 and 26.7905 and 17.9158 and 22.3766 | Dose-response curves for asenapine vs endogenous trace amines (hTA1; M = -8): 22.727 and 16.7405 and 21.3472 and 13.3611 and 11.9525 and 11.6238 | Dose-response curves for asenapine vs endogenous trace amines (hTA1; M = -8.522): 4.5 and 4.523 and 5.969 and 4.393 and 2.514 and 2.6083 | Dose-response curves for asenapine vs endogenous trace amines (hTA1; M = -9): 1.986 and 1.318 and 1.8743 and 1.716 and 1.012 and 1.106 | Dose-response curves for asenapine vs endogenous trace amines (hTA1; M = -9.522): -1.063 and -1.33 and -0.4402 and -0.06817 and 0.1666 and -0.4908 | Dose-response curves for asenapine vs endogenous trace amines (hTA1; M = -10): -0.596 and -1.264 and -0.5515 and -0.4438 and -0.7725 and -0.6786 | Dose-response curves for asenapine vs endogenous trace amines (hTA1; M = -10.522): -1.3749 and -1.931 and -0.6405 and 0.0727 and -0.5847 and -1.101 | Dose-response curves for asenapine vs endogenous trace amines (hTA1; M = -11): -0.1286 and -1.241 and 0.2497 and 0.6362 and -0.3499 and -0.7725 | Dose-response curves for asenapine vs endogenous trace amines (hTA1; M = -11.522): -0.01735 and -1.575 and -0.7963 and 0.5892 and -0.3969 and -0.256 | Dose-response curves for asenapine vs endogenous trace amines (hTA1; M = -12): -1.353 and -1.3749 and -1.286 and 0.02574 and -0.4908 and -0.3029 | Dose-response curves for asenapine vs endogenous trace amines (hTA1; M = -12.522): -1.152 and -1.664 and -0.9075 and 0.5892 (2×) and 0.4483 | Span ± SEM (Emax normalized to β-PEA) (hTA1; wt hTA1, HEK293T, n=3): 100 ± 2.26 | pEC50 ± SEM (hTA1; wt hTA1, HEK293T, n=3): 7.09 ± 0.05 | EC50 (hTA1; wt hTA1, HEK293T, n=3, read-out: EC50): 0.0806 µM | Emax (hTA1; wt hTA1, relative to β-PEA): 100.0% | Emax values (hTA1 C88S; Mean of fit per experiment): 100 | pEC50 values (hTA1 C88S; Mean of fit per experiment): 7.013 and 7.137 | Span ± SEM (Emax normalized to β-PEA) (hTA1 C88S; n=2): 100 ± 2.93 | pEC50 ± SEM (hTA1 C88S; n=2): 7.08 ± 0.06 | EC50 (hTA1 C88S; n=2, read-out: EC50): 0.0841 µM | Span ± SEM (Emax normalized to β-PEA) (hTA1 C88/178S; C88/178S, n=2): 100 ± 2.48 | pEC50 ± SEM (hTA1 C88/178S; C88/178S, n=2): 6.88 ± 0.05 | EC50 (hTA1 C88/178S; C88/178S, n=2, read-out: EC50): 0.131 µM | pEC50 values, Mean (hTA1 C88/178S; [1]): 6.846 and 6.92 | ΔEmax values (each mutant value - WT average), Mean (hTA1 C88/178S; [1]): 0 | ΔpEC50 values (each mutant value - WT average), Mean (hTA1 C88/178S; [1]): -0.2478 and -0.1738 | Normalized Luminescence Counts (N=2) (hTA1 C88/178S; C88S, C178S, M = -5): 101.882 and 95.4366 and 102.899 and 85.0446 and 70.847 and 114.648 | Normalized Luminescence Counts (N=2) (hTA1 C88/178S; C88S, C178S, M = -5.522): 95.8888 and 94.7581 and 92.1574 and 110.721 and 84.1384 and 118.726 | Normalized Luminescence Counts (N=2) (hTA1 C88/178S; C88S, C178S, M = -6): 93.4012 and 85.4861 and 88.3694 and 88.8206 and 85.1957 and 105.284 | Normalized Luminescence Counts (N=2) (hTA1 C88/178S; C88S, C178S, M = -6.522): 70.73 and 60.7795 and 60.3272 and 66.7689 and 68.1283 and 68.2793 | Normalized Luminescence Counts (N=2) (hTA1 C88/178S; C88S, C178S, M = -7): 45.3449 and 38.504 and 42.0658 and 45.3213 and 30.2174 and 49.8525 | Normalized Luminescence Counts (N=2) (hTA1 C88/178S; C88S, C178S, M = -7.522): 20.2426 and 24.5959 and 17.7549 and 22.8165 and 30.2174 and 24.931 | Normalized Luminescence Counts (N=2) (hTA1 C88/178S; C88S, C178S, M = -8): 8.37 and 6.617 and 6.9 and 9.072 and 8.317 and 8.6188 | Normalized Luminescence Counts (N=2) (hTA1 C88/178S; C88S, C178S, M = -8.522): 1.02 and 2.433 and 0.1154 and 4.692 and 3.483 and 4.843 | Normalized Luminescence Counts (N=2) (hTA1 C88/178S; C88S, C178S, M = -9): 0.5677 and 0.7373 and -0.4499 and -0.2925 (2×) and 1.218 | Normalized Luminescence Counts (N=2) (hTA1 C88/178S; C88S, C178S, M = -9.522): 0.002362 and 0.3416 and -0.5065 and -0.8967 and 0.3116 and 0.009559 | Normalized Luminescence Counts (N=2) (hTA1 C88/178S; C88S, C178S, M = -10): -0.9588 and 0.002362 and -0.3934 and -1.652 and -0.4436 and -1.199 | Normalized Luminescence Counts (N=2) (hTA1 C88/178S; C88S, C178S, M = -10.522): -1.185 and -0.563 and -1.0153 and -1.803 and 0.009559 and -1.35 | Normalized Luminescence Counts (N=2) (hTA1 C88/178S; C88S, C178S, M = -11): -0.05417 and -0.2238 and 0.4547 and -0.2925 and -1.652 and -0.7456 | Normalized Luminescence Counts (N=2) (hTA1 C88/178S; C88S, C178S, M = -11.522): 0.172 and 0.1154 and 0.7939 and 0.1606 and -1.954 and -0.4436 | Normalized Luminescence Counts (N=2) (hTA1 C88/178S; C88S, C178S, M = -12): 0.172 and -0.6195 and -0.5065 and -0.1415 and -1.35 and 0.9158 | Normalized Luminescence Counts (N=2) (hTA1 C88/178S; C88S, C178S, M = -12.522): -0.2803 and 0.2285 and 0.002362 and -1.199 and 0.4627 and 0.6137 | Emax values, Mean (hTA1 C88/178S; C88S, C178S, normalized (β-PEA = 100), each row is one independent experiment, 3 replicates): 100

From paper PMC10762035, “Molecular basis of human trace amine-associated receptor 1 activation” (Nature Communications, 2024)
